Key:
Cannabinoid receptor 2 = Cannabinoid receptor 2 (Homo sapiens, UniProt P34972); test: Displacement of [3H] CP-55,940 from human CB2 receptor expressed in HEK cells at 10 uM after 3 hrs by scintillation counting; assay type: cell-based; settings: for inhibition: HEK293
Cannabinoid receptor 1 [1] = biological target: T1, Cannabinoid receptor 1 (Homo sapiens, UniProt P21554); test: Inverse agonist activity at human CB1 receptor expressed in Sf9 cells coexpressing Gbeta1gamma2 and RSG4 assessed as degradation of [gamma-33P]GTP after 20 mins by steady-state GTPase assay; assay type: cell-based
Cannabinoid receptor 1 [2] = biological target: T1, Cannabinoid receptor 1; settings: Sf9, at 30 µM
Description: Inverse agonist activity at human CB1 receptor expressed in Sf9 cells coexpressing Gbeta1gamma2 and RSG4 assessed as degradation of [gamma-33P]GTP at 30 uM after 20 mins by steady-state GTPase assay relative to control

Cannabinoid receptor 1 [3] = biological target: T1, Cannabinoid receptor 1; settings: Sf9, 30 uM
Description: Agonist activity at human CB1 receptor expressed in Sf9 cells coexpressing Gbeta1gamma2 and RSG4 assessed as degradation of [gamma-33P]GTP at 30 uM after 20 mins by steady-state GTPase assay relative to control

Cannabinoid receptor 2, sequence (P34972 whole entry): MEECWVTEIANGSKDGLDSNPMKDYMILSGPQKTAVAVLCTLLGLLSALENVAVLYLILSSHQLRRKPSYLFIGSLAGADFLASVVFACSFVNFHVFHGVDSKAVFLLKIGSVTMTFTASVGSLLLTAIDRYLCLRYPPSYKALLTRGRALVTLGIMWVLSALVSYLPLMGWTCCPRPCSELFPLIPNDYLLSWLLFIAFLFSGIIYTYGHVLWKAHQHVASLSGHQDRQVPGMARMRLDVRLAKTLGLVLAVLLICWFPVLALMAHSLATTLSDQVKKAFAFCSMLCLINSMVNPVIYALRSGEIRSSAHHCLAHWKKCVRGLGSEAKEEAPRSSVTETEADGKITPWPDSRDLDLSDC
T1 sequence (P21554 whole entry): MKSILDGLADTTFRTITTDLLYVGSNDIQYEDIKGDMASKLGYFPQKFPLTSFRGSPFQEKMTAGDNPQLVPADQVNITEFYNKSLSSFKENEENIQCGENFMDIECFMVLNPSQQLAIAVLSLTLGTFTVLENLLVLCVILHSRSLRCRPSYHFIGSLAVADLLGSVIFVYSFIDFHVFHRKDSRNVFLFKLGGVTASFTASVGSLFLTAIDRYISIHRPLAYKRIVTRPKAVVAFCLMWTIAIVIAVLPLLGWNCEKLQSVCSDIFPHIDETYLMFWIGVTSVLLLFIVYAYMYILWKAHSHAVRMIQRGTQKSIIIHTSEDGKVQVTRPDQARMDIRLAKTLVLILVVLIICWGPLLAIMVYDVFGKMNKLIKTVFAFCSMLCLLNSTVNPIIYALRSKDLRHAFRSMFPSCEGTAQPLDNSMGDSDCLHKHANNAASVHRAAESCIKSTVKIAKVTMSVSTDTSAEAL

| Compound | inhibition (Cannabinoid receptor 2) [%] | EC50 (Cannabinoid receptor 1 [1]) [µM] | Emax (Cannabinoid receptor 1 [2]) [%] | Ki (Cannabinoid receptor 2) [µM] | Emax (Cannabinoid receptor 1 [3]) [%] |
| --- | --- | --- | --- | --- | --- |
| Cc1c(C(=O)NCCCCCCCCNC(=O)[C@@H]2CCC[C@H](C(=O)NCCCCCCCCNC(=O)c3nn(-c4ccc(Cl)cc4Cl)c(-c4ccc(Cl)cc4)c3C)C2)nn(-c2ccc(Cl)cc2Cl)c1-c1ccc(Cl)cc1 | 10.3 | 3.16 | 33.6 | – | – |
| Cc1c(C(=O)NCCCCN)nn(-c2ccc(Cl)cc2Cl)c1-c1ccc(Cl)cc1 | 31.8 | 2.82 | 86.9 | – | – |
| Cc1c(C(=O)NN2CCCCC2)nn(-c2ccc(Cl)cc2Cl)c1-c1ccc(Cl)cc1 | 9 | – | – | – | – |
| Cc1c(C(=O)NCCCCCCCCNC(=O)C23CC4CC(C2)CC(C(=O)NCCCCCCCCNC(=O)c2nn(-c5ccc(Cl)cc5Cl)c(-c5ccc(Cl)cc5)c2C)(C4)C3)nn(-c2ccc(Cl)cc2Cl)c1-c1ccc(Cl)cc1 | 4.1 | 7.24 | 34.7 | – | – |
| Cc1c(C(=O)NCCCCCCCN(CCCCCCCNC(=O)c2nn(-c3ccc(Cl)cc3Cl)c(-c3ccc(Cl)cc3)c2C)Cc2ccccc2)nn(-c2ccc(Cl)cc2Cl)c1-c1ccc(Cl)cc1 | 22.6 | 3.85 | 67.5 | – | – |
| Cc1c(C(=O)NCCCCNC(=O)c2ccc(C(=O)NCCCCNC(=O)c3nn(-c4ccc(Cl)cc4Cl)c(-c4ccc(Cl)cc4)c3C)cc2)nn(-c2ccc(Cl)cc2Cl)c1-c1ccc(Cl)cc1 | 24.3 | 15 | 50.2 | – | – |
| Cc1c(C(=O)NCCCCCCCCNC(=O)[C@@H]2CCC[C@@H](C(=O)NCCCCCCCCNC(=O)c3nn(-c4ccc(Cl)cc4Cl)c(-c4ccc(Cl)cc4)c3C)C2)nn(-c2ccc(Cl)cc2Cl)c1-c1ccc(Cl)cc1 | 18.8 | 7.6 | 45.5 | – | – |
| Cc1c(C(=O)NCCCCCCCCNC(=O)c2cccc(C(=O)NCCCCCCCCNC(=O)c3nn(-c4ccc(Cl)cc4Cl)c(-c4ccc(Cl)cc4)c3C)c2)nn(-c2ccc(Cl)cc2Cl)c1-c1ccc(Cl)cc1 | 29.1 | 13.5 | 59.1 | – | – |
| Cc1c(C(=O)NCCCCNC(=O)[C@H]2CCCC[C@@H]2C(=O)NCCCCNC(=O)c2nn(-c3ccc(Cl)cc3Cl)c(-c3ccc(Cl)cc3)c2C)nn(-c2ccc(Cl)cc2Cl)c1-c1ccc(Cl)cc1 (relative stereo) | 14.6 | 10.5 | 58.4 | – | – |
| Cc1c(C(=O)NCCCCNCc2ccc(C(=O)NCCCCNC(=O)c3nn(-c4ccc(Cl)cc4Cl)c(-c4ccc(Cl)cc4)c3C)cc2)nn(-c2ccc(Cl)cc2Cl)c1-c1ccc(Cl)cc1 | 23 | 1.91 | 67.4 | – | – |
| Cc1c(C(=O)NCCCCCCCCNC(=O)[C@H]2CC[C@H](C(=O)NCCCCCCCCNC(=O)c3nn(-c4ccc(Cl)cc4Cl)c(-c4ccc(Cl)cc4)c3C)CC2)nn(-c2ccc(Cl)cc2Cl)c1-c1ccc(Cl)cc1 | 14.5 | 9.55 | 38.8 | – | – |
| Cc1c(C(=O)NCCCCCCCCNC(=O)c2ccc(C(=O)NCCCCCCCCNC(=O)c3nn(-c4ccc(Cl)cc4Cl)c(-c4ccc(Cl)cc4)c3C)cc2)nn(-c2ccc(Cl)cc2Cl)c1-c1ccc(Cl)cc1 | 9.7 | 40.7 | 29.3 | – | – |
| Cc1c(C(=O)NCCCCNCc2ccccc2)nn(-c2ccc(Cl)cc2Cl)c1-c1ccc(Cl)cc1 | 85.4 | 0.661 | 92.5 | 12.7 | – |
| Cc1c(C(=O)NCCCCCCCCNC(=O)c2ccccc2)nn(-c2ccc(Cl)cc2Cl)c1-c1ccc(Cl)cc1 | 21.4 | 0.501 | 80.2 | – | – |
| Cc1c(C(=O)NCCCCNC(=O)C23CC4CC(C2)CC(C(=O)NCCCCNC(=O)c2nn(-c5ccc(Cl)cc5Cl)c(-c5ccc(Cl)cc5)c2C)(C4)C3)nn(-c2ccc(Cl)cc2Cl)c1-c1ccc(Cl)cc1 | 15.8 | 16.2 | 66.4 | – | – |
| Cc1c(C(=O)NN2CCCCC2)nn(-c2ccc(Cl)cc2Cl)c1-c1ccc(I)cc1 | – | – | 100 | – | – |
| Cc1c(C(=O)NCCCCNCc2ccc(CNCCCCNC(=O)c3nn(-c4ccc(Cl)cc4Cl)c(-c4ccc(Cl)cc4)c3C)cc2)nn(-c2ccc(Cl)cc2Cl)c1-c1ccc(Cl)cc1 | 102 | 2.95 | 93.2 | 2.4 | – |

| Compound | inhibition (Cannabinoid receptor 2) [%] | EC50 (Cannabinoid receptor 1 [1]) [µM] | Emax (Cannabinoid receptor 1 [2]) [%] | Ki (Cannabinoid receptor 2) [µM] | Emax (Cannabinoid receptor 1 [3]) [%] |
| --- | --- | --- | --- | --- | --- |
| Cc1c(C(=O)NCCCCNC(=O)[C@@H]2CCC[C@@H](C(=O)NCCCCNC(=O)c3nn(-c4ccc(Cl)cc4Cl)c(-c4ccc(Cl)cc4)c3C)C2)nn(-c2ccc(Cl)cc2Cl)c1-c1ccc(Cl)cc1 (relative stereo) | 41.1 | 8.55 | 63 | – | – |
| Cc1c(C(=O)NCCCCCCCNCCCCCCCNC(=O)c2nn(-c3ccc(Cl)cc3Cl)c(-c3ccc(Cl)cc3)c2C)nn(-c2ccc(Cl)cc2Cl)c1-c1ccc(Cl)cc1 | 34.4 | 0.871 | 89.2 | – | – |
| Cc1c(C(=O)NCCCCNCc2cccc(C(=O)NCCCCNC(=O)c3nn(-c4ccc(Cl)cc4Cl)c(-c4ccc(Cl)cc4)c3C)c2)nn(-c2ccc(Cl)cc2Cl)c1-c1ccc(Cl)cc1 | 15.3 | 1.62 | 78.1 | – | – |
| Cc1c(C(=O)NCCCCCCCCNCc2ccccc2)nn(-c2ccc(Cl)cc2Cl)c1-c1ccc(Cl)cc1 | 93.9 | 0.123 | 93.8 | 31 | – |
| Cc1c(C(=O)NCCCCNC(=O)[C@@H]2CCC[C@H](C(=O)NCCCCNC(=O)c3nn(-c4ccc(Cl)cc4Cl)c(-c4ccc(Cl)cc4)c3C)C2)nn(-c2ccc(Cl)cc2Cl)c1-c1ccc(Cl)cc1 | 19.8 | 24.3 | 38.2 | – | – |
| Cc1c(C(=O)NCCCCCCNC(=O)c2cccc(C(=O)NCCNC(=O)c3nn(-c4ccc(Cl)cc4Cl)c(-c4ccc(Cl)cc4)c3C)c2)nn(-c2ccc(Cl)cc2Cl)c1-c1ccc(Cl)cc1 | 3.2 | – | 43.6 | – | – |
| Cc1c(C(=O)NCCCCCCCCNC(=O)C2CCCCC2)nn(-c2ccc(Cl)cc2Cl)c1-c1ccc(Cl)cc1 | 20.2 | 1.1 | 78.8 | – | – |
| Cc1c(C(=O)NCCCCCCCCNC(=O)[C@H]2CCCC[C@@H]2C(=O)NCCCCCCCCNC(=O)c2nn(-c3ccc(Cl)cc3Cl)c(-c3ccc(Cl)cc3)c2C)nn(-c2ccc(Cl)cc2Cl)c1-c1ccc(Cl)cc1 (relative stereo) | 10.5 | – | 14.3 | – | – |
| Cc1c(C(=O)NCCCCCCCCN)nn(-c2ccc(Cl)cc2Cl)c1-c1ccc(Cl)cc1 | 9.5 | 0.112 | 92.8 | – | – |
| Cc1c(C(=O)NCCCCNC(=O)c2cccc(C(=O)NCCCCNC(=O)c3nn(-c4ccc(Cl)cc4Cl)c(-c4ccc(Cl)cc4)c3C)c2)nn(-c2ccc(Cl)cc2Cl)c1-c1ccc(Cl)cc1 | 0 | – | 19.5 | – | – |
| Cc1c(C(=O)NCCCCCCCCNC(=O)[C@H]2CC[C@@H](C(=O)NCCCCCCCCNC(=O)c3nn(-c4ccc(Cl)cc4Cl)c(-c4ccc(Cl)cc4)c3C)CC2)nn(-c2ccc(Cl)cc2Cl)c1-c1ccc(Cl)cc1 | 27.3 | 8.71 | 62.4 | – | – |
| CCCCCCC(C)(C)c1ccc([C@@H]2C[C@H](O)CC[C@H]2CCCO)c(O)c1 | – | – | – | – | 67.4 |
| Cc1c(C(=O)NCCCCNCc2cccc(CNCCCCNC(=O)c3nn(-c4ccc(Cl)cc4Cl)c(-c4ccc(Cl)cc4)c3C)c2)nn(-c2ccc(Cl)cc2Cl)c1-c1ccc(Cl)cc1 | 7 | 8.85 | 76.8 | – | – |
| Cc1c(C(=O)NCCCCNC(=O)[C@H]2CC[C@H](C(=O)NCCCCNC(=O)c3nn(-c4ccc(Cl)cc4Cl)c(-c4ccc(Cl)cc4)c3C)CC2)nn(-c2ccc(Cl)cc2Cl)c1-c1ccc(Cl)cc1 | 17.6 | – | – | – | – |
| Cc1c(C(=O)NCCCCNC(=O)[C@H]2CC[C@@H](C(=O)NCCCCNC(=O)c3nn(-c4ccc(Cl)cc4Cl)c(-c4ccc(Cl)cc4)c3C)CC2)nn(-c2ccc(Cl)cc2Cl)c1-c1ccc(Cl)cc1 | 25.9 | 9.66 | 61.9 | – | – |
| Cc1c(C(=O)NCCCCNC(=O)c2ccccc2)nn(-c2ccc(Cl)cc2Cl)c1-c1ccc(Cl)cc1 | 25.8 | 0.776 | 94 | – | – |
| Cc1c(C(=O)NCCCCNC(=O)C2CCCCC2)nn(-c2ccc(Cl)cc2Cl)c1-c1ccc(Cl)cc1 | 24.1 | 0.11 | 91.5 | – | – |
